Laboratory results from patent US10391103B2, “Ferroporphyrin solid dispersion and preparation method thereof” (Sinotherapeutics Inc., priority 2013, dated 2019).

How the values were obtained:
[1] = Stability test for the solid dispersions (content by HPLC)
[2] = rats; cited from earlier work

Substance: porphyrin iron [API]
- Content, stability study 0 day ([1]; open, 25° C. 60% RH): 100.9%
- Content, stability study 1 day ([1]; open, 25° C. 60% RH): 98.0%
- Content, stability study 3 days ([1]; open, 25° C. 60% RH): 98.7%
- Content, stability study 7 days ([1]; open, 25° C. 60% RH): 100.9%
- Content, stability study 35 days ([1]; open, 25° C. 60% RH): 98.8%
- Content, stability study 0 day ([1]; open, 40° C. 75% RH): 100.9%
- Content, stability study 1 day ([1]; open, 40° C. 75% RH): 99.0%
- Content, stability study 3 days ([1]; open, 40° C. 75% RH): 99.8%
- Content, stability study 7 days ([1]; open, 40° C. 75% RH): 100.8%
- Content, stability study 35 days ([1]; open, 40° C. 75% RH): 100.6%
- Content, stability study 0 day ([1]; sealed, 25° C. 60% RH): 100.9%
- Content, stability study 1 day ([1]; sealed, 25° C. 60% RH): 99.5%
- Content, stability study 3 days ([1]; sealed, 25° C. 60% RH): 102.0%
- Content, stability study 7 days ([1]; sealed, 25° C. 60% RH): 100.5%
- Content, stability study 14 days ([1]; sealed, 25° C. 60% RH): 98.9%
- Content, stability study 35 days ([1]; sealed, 25° C. 60% RH): 102.2%
- Content, stability study 0 day ([1]; sealed, 40° C. 75% RH): 100.9%
- Content, stability study 1 day ([1]; sealed, 40° C. 75% RH): 99.6%
- Content, stability study 3 days ([1]; sealed, 40° C. 75% RH): 102.7%
- Content, stability study 7 days ([1]; sealed, 40° C. 75% RH): 100.8%
- Content, stability study 14 days ([1]; sealed, 40° C. 75% RH): 99.2%
- Content, stability study 35 days ([1]; sealed, 40° C. 75% RH): 102.7%
- absolute oral bioavailability [2]: 0.93%
